# Measured values from PubChem BioAssay AID2060499 (Molecular Pharmacology Branch, DTP, NCI, 2025).
# Test system: 777334-354-R2-J4-PDC tumor spheroids with HUVEC/MSC, viability
# Assay: Anticancer human tumor 777334-354-R2-J4-PDC patient-derived pancreatic adenocarcinoma cell line growth inhibition [GQUAD]
# Settings: for IC50: curve of first compound; for viability, T/C: stronger effect = lower value
# Excerpt: DNA G-quadruplex Stabilizer Agents in Combinations in Complex Spheroids
# A high-throughput screen of multi-cell type tumor spheroids was designed to identify active combinations of DNA G-quadruplex stabilizer agents and targeted small molecules. Complex spheroids include a stromal component modeled by human endothelial cells (HUVEC) and fibroblasts modeled by human mesenchymal stem cells (MSCs). The concentration ranges selected for each drug and investigational agent were based upon clinically achievable concentrations if the clinical Cmax of the agent was known.
# Compounds. The drugs and investigational agents: pidnarulex (CX-5461; NSC782164), APTO-253 (NSC789042), BRACO-19 (NSC847499), peposertib (NSC802822), ceralasertib (NSC780249), elimusertib (NSC800525), camonsertib (NSC841442), AZD-1390 (NSC803789), olaparib (NSC753686), talazoparib (NSC767125), ART-558 (NSC835418), sotorasib (NSC818433), MRTX-1133 (NSC836407), SN-38 (NSC673596), topotecan (NSC609699), etoposide (NSC141540), doxorubicin (NSC123127), gemcitabine (NSC613327), 5-fluorouracil (NSC19893), paclitaxel (NSC125973), vemurafenib (NSC761431), panobinostat (NSC761190), R-306465 (JNJ-16241199; NSC773264), adavosertib (NSC754352), TP-3654 (NSC805149), carboplatin (NSC241240), KSQ-4279 (NSC840948), and staurosporine (NSC755774) were obtained from the National Cancer Institute (NCI) Developmental Therapeutics Program Chemical Repository (34). The FDA-approved anticancer drug set is available from the NCI Developmental Therapeutics Program. […] The stock solutions were prepared in dimethyl sulfoxide (DMSO, Sigma-Aldrich, St. Louis, MO, cat. D2650) at 800-fold the tested concentration and stored at -70 degrees C prior to their use. All drugs and investigational agents were tested over a range starting from a high concentration at or near the clinical Cmax and decreasing in half-log increments. If the clinical Cmax for an agent had not been determined, the highest concentration tested was 10 microM.
# 2.3 Cell Culture. All cells were maintained in an incubator at 37 degrees C and 5% CO2 with 95% humidity. The PDC lines were cultured according to standard operating procedures established by the NCI PDMR. All PDCs were thawed and cultured in Matrigel-coated flasks prepared with a working solution of 1X Ham's F-12 nutrient mix, without supplementation (Invitrogen, cat. 11765054), 100 U/mL penicillin-streptomycin (Invitrogen, cat. 15140122), and 2.5% Matrigel (Corning Inc., cat. 354248) for the first three passages. The 857933-349-R-J2-PDC line was cultured in 6C/Colon 1B media, which includes advanced DMEM/F-12 (Thermo Fisher Scientific, cat. 12634028), 10 mM HEPES (Thermo Fisher Scientific, cat. 15630080), 1X GlutaMAX supplement (Thermo Fisher Scientific, cat. 35050061), 0.1 mg/mL primocin (InvivoGen, cat. ant-pm-2), 10% defined fetal bovine serum, heat inactivated (HyClone Laboratories Inc., cat. SH30070.03HI), 50% L-WRN conditioned media (ATCC, cat. CRL-3276), 1.25 mM N-Acetyl-L-cysteine (Sigma-Aldrich, cat. A9165), 10 mM nicotinamide (Sigma-Aldrich, cat. N0636), 1X B-27 supplement (Thermo Fisher Scientific, cat. 17504044), 1X N-2 supplement (Thermo Fisher Scientific, cat. 17502048), 10 microM Y-27632 dihydrochloride (Tocris Bioscience, cat. 1254), and 50 ng/mL human EGF recombinant protein (Thermo Fisher Scientific, cat. PHG0311). The 485176-168-R4-J1-PDC line was cultured in Panc media, which includes all 6C/Colon 1B media components plus 100 ng/mL human FGF-10 (Thermo Fisher Scientific, cat. 100-26), 500 nM SB-431542 (Selleckchem, cat. S1067), and gastrin (Tocris, cat. 3006).
# […]
# [1] = second compound 0.0316 µM, first compound 0.0316 µM
# [2] = second compound 0.0316 µM, first compound 0.316 µM
# [3] = second compound 0.1 µM, first compound 0.0316 µM
# [4] = second compound 0.1 µM, first compound 0.316 µM
# [5] = second compound 0.316 µM, first compound 0.0316 µM
# [6] = second compound 0.316 µM, first compound 0.316 µM
# [7] = second compound 1 µM, first compound 0.0316 µM
# [8] = second compound 1 µM, first compound 0.316 µM
# [9] = second compound 3.16 µM, first compound 0.0316 µM
# [10] = second compound 3.16 µM, first compound 0.316 µM
# [11] = second compound 10 µM, first compound 0.0316 µM
# [12] = second compound 10 µM, first compound 0.316 µM
# 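Note: spheroids exposed to compounds for 7 days before readout.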
compound,measurement,setting,value
Cc1[nH]c2ccccc2c1CCNCc1ccc(/C=C/C(=O)NO)cc1 + Cc1cnc(CNC(=O)c2c(=O)c3ccc(N4CCCN(C)CC4)nc3n3c2sc2ccccc23)cn1,IC50,second compound 0.0316 µM,144 nM
same,IC50,second compound 0.1 µM,155 nM
same,IC50,second compound 0.316 µM,122 nM
same,IC50,second compound 1 µM,114 nM
same,IC50,second compound 3.16 µM,89.3 nM
same,IC50,second compound 10 µM,< 0.999 nM
same,"viability, T/C","second compound 0.0316 µM, first compound 0.000999 µM",95.1%
same,"viability, T/C","second compound 0.0316 µM, first compound 0.00316 µM",89.1%
same,"viability, T/C","second compound 0.0316 µM, first compound 0.00999 µM",93.1%
same,"viability, T/C",[1],73.6%
same,"viability, T/C","second compound 0.0316 µM, first compound 0.0999 µM",57.9%
same,"viability, T/C",[2],35.5%
same,"viability, T/C","second compound 0.1 µM, first compound 0.000999 µM",83.1%
same,"viability, T/C","second compound 0.1 µM, first compound 0.00316 µM",69.4%
same,"viability, T/C","second compound 0.1 µM, first compound 0.00999 µM",68.1%
same,"viability, T/C",[3],73.2%
same,"viability, T/C","second compound 0.1 µM, first compound 0.0999 µM",58.9%
same,"viability, T/C",[4],35.3%
same,"viability, T/C","second compound 0.316 µM, first compound 0.000999 µM",73.7%
same,"viability, T/C","second compound 0.316 µM, first compound 0.00316 µM",79.5%
same,"viability, T/C","second compound 0.316 µM, first compound 0.00999 µM",58.2%
same,"viability, T/C",[5],69.3%
same,"viability, T/C","second compound 0.316 µM, first compound 0.0999 µM",53.7%
same,"viability, T/C",[6],32.9%
same,"viability, T/C","second compound 1 µM, first compound 0.000999 µM",70.8%
same,"viability, T/C","second compound 1 µM, first compound 0.00316 µM",66.2%
same,"viability, T/C","second compound 1 µM, first compound 0.00999 µM",68.2%
same,"viability, T/C",[7],58.1%
same,"viability, T/C","second compound 1 µM, first compound 0.0999 µM",56%
same,"viability, T/C",[8],26.4%
same,"viability, T/C","second compound 3.16 µM, first compound 0.000999 µM",58%
same,"viability, T/C","second compound 3.16 µM, first compound 0.00316 µM",58.6%
same,"viability, T/C","second compound 3.16 µM, first compound 0.00999 µM",59.4%
same,"viability, T/C",[9],53.8%
same,"viability, T/C","second compound 3.16 µM, first compound 0.0999 µM",50.3%
same,"viability, T/C",[10],18.6%
same,"viability, T/C","second compound 10 µM, first compound 0.000999 µM",53.2%
same,"viability, T/C","second compound 10 µM, first compound 0.00316 µM",46.2%
same,"viability, T/C","second compound 10 µM, first compound 0.00999 µM",51.7%
same,"viability, T/C",[11],46.1%
same,"viability, T/C","second compound 10 µM, first compound 0.0999 µM",42.6%
same,"viability, T/C",[12],1.07%
Nc1ccn(C2OC(CO)C(O)C2(F)F)c(=O)n1 (centres undefined) + Cc1[nH]c2ccc(F)cc2c1-c1nc2c3cccnc3c3ncccc3c2[nH]1,IC50,second compound 0.0316 µM,931 nM
same,IC50,second compound 0.1 µM,1140 nM
same,IC50,second compound 0.316 µM,809 nM
same,IC50,second compound 1 µM,466 nM
same,IC50,second compound 3.16 µM,< 31.6 nM
same,IC50,second compound 10 µM,< 31.6 nM
same,"viability, T/C",[1],88%
same,"viability, T/C","second compound 0.0316 µM, first compound 0.1 µM",67.5%
same,"viability, T/C",[2],65%
same,"viability, T/C","second compound 0.0316 µM, first compound 1 µM",46.3%
same,"viability, T/C","second compound 0.0316 µM, first compound 3.16 µM",41.6%
same,"viability, T/C","second compound 0.0316 µM, first compound 10 µM",34%
same,"viability, T/C",[3],90.2%
same,"viability, T/C","second compound 0.1 µM, first compound 0.1 µM",74%
same,"viability, T/C",[4],69.2%
same,"viability, T/C","second compound 0.1 µM, first compound 1 µM",47.6%
same,"viability, T/C","second compound 0.1 µM, first compound 3.16 µM",41.3%
same,"viability, T/C","second compound 0.1 µM, first compound 10 µM",32.1%
same,"viability, T/C",[5],75.5%
same,"viability, T/C","second compound 0.316 µM, first compound 0.1 µM",84.7%
same,"viability, T/C",[6],59.4%
same,"viability, T/C","second compound 0.316 µM, first compound 1 µM",49.7%
same,"viability, T/C","second compound 0.316 µM, first compound 3.16 µM",39.8%
same,"viability, T/C","second compound 0.316 µM, first compound 10 µM",35.5%
same,"viability, T/C",[7],73.5%
same,"viability, T/C","second compound 1 µM, first compound 0.1 µM",68%
same,"viability, T/C",[8],52.6%
same,"viability, T/C","second compound 1 µM, first compound 1 µM",40.7%
same,"viability, T/C","second compound 1 µM, first compound 3.16 µM",39.4%
same,"viability, T/C","second compound 1 µM, first compound 10 µM",29.3%
same,"viability, T/C",[9],36.6%
same,"viability, T/C","second compound 3.16 µM, first compound 0.1 µM",31.7%
same,"viability, T/C",[10],30.7%
same,"viability, T/C","second compound 3.16 µM, first compound 1 µM",13.8%
same,"viability, T/C","second compound 3.16 µM, first compound 3.16 µM",13.6%
same,"viability, T/C","second compound 3.16 µM, first compound 10 µM",12.9%
same,"viability, T/C",[11],30%
same,"viability, T/C","second compound 10 µM, first compound 0.1 µM",26.9%
same,"viability, T/C",[12],16.2%
same,"viability, T/C","second compound 10 µM, first compound 1 µM",10.3%
same,"viability, T/C","second compound 10 µM, first compound 3.16 µM",8.66%
same,"viability, T/C","second compound 10 µM, first compound 10 µM",7.59%
